Assay results taken from patent US6465007B1, “Transgene expression in polarized cells” (Genzyme Corporation, priority 1998, dated 2002).

How the values were obtained:
[1] = test system: polarized NHBE cells; experiment: Infection with Ad2βgal-4 after pretreatment, βgal expression; assay type: cell-based, human; conditions: cells treated with the calcium chelator
Method: Polarized NHBE cells were treated with Ca^2+-free medium (GIBCO) for 0.5 h and then rinsed twice with Opti-MEM (GIBCO). […] The cells were then infected by adding 200 μl of Opti-MEM containing Ad2βgal-4 or Ad2EGFP (100 moi) to the apical surface of the cultures, while 1 ml of OptiMEM was added to the outside of the insert. After 1 h, the viral suspension was removed, the cells washed twice with Opti-MEM and then 1 ml of the culture medium was added to the outside of the insert. Two days after infection, cells were assayed for βgal expression.

[2] = test system: mouse trachea; experiment: Intranasal instillation of Ad2βgal-4, quantitative chemiluminescent βgal assay of trachea; assay type: in vivo
Method: Female BALB/c mice 9-12 weeks of age were purchased from Taconic (Germantown, N.Y.). In some groups, mice were instilled intranasally with 25 μl of a solution containing EGTA (pH 7.5), followed by 25 μl of 5% sucrose in PBS containing Adβgal-4 (2×10^8 IU). In other groups, mice were co-instilled with 25 μl of a solution prepared by mixing equal volumes of a 2× (4×10^8 IU/25 μl) Ad2βgal-4 solution in 10% sucrose with 2×EGTA prior to instillation.
To quantify βgal expression, mice were sacrificed with an intraperitoneal injection of Somlethal (King Pharmaceuticals, Bristol, Tenn.) as described by Kaplan et al (1998), and samples of trachea from individual mice were homogenized in lysis buffer. βgal activity was measured with a commercial kit (Galactolight, Tropix, Bedford, Mass.). Protein concentration in the homogenate was measured using DC reagent (Bio-Rad, Hercules, Calif.). Results are expressed as relative light units (RLU) per milligram of total protein.

[3] = test system: columnar epithelial cells in mouse trachea; experiment: Light and electron microscopy of trachea; assay type: in vivo
Description: Tracheas stained with X-gal were removed from the fixing solution and processed for light and electron microscopy using standard procedures. Briefly, the tissues were washed with PBS, dried in alcohols, embedded in glycol methacrylate (GMA) and stained with nuclear fast red. The Ogal-stained cells were identified by light microscopy. For electron microscopy, the fixed tissues were washed three times in Sabatini's solution (1×PBS containing 6.8% sucrose), and postfixed with 1% osmium tetroxide in 0.1 M cacodylate buffer (pH7.4) for an hour, followed by three washes with Sabatini's solution. The samples were then dehydrated with a graded series of alcohols (30, 50, 75, 90 and 100 % for 15 min each), followed by treatments with propylene oxide (15 min), a 1:1 Epon-propylene oxide mix (1 h), and three incubations in pure Epon (3 h, 3 h and overnight). Polymerization was at 64° C. overnight. After embedding, ultrathin sections were cut (MT2 Sorvall ultramicrotome) and stained with lead citrate and uranyl acetate and examined with a JEOL 100CX transmission electron microscope (TEM).

[4] = test system: tight junctions; conditions: compared with EDTA; cited from earlier work

O=C(O)CN(CCOCCOCCN(CC(=O)O)CC(=O)O)CC(=O)O [EGTA, Ethylene glycol bis(B-aminoethyl ether) N,N,N′,N′-tetraacetic acid]
increase in expression from an AdV infection [1]: ~50 fold | time between treatment and AdV instillation giving maximal enhancement of β-gal expression ([2]; 0.1M and 0.4M, FIG. 5B): 0.5 h | tracheal gene expression relative to co-instilling AdV with 0.05M EGTA ([2]; pre-treated with 0.05 and 0.1M, FIG. 5A): > 6 fold | airway epithelial cell damage by EM ([3]; 0.4M): some damaged airway epithelial cells were observed | cells transduced by AdV in cartilaginous airways ([3]; treated prior to AdV instillation): localized to columnar epithelial cells | effectiveness at disrupting tight junctions [4]: more effective than EDTA
